Laboratory results as given in PubChem BioAssay (NCI).
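Test compounds were applied to cells in 96-well plates for 48 hours at 5 doses. Here, GI50 denotes the concentration required for 50% inhibition of growth. TGI marks complete inhibition of growth.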

Experiments:
Experiment in all cases: NCI anticancer screen, dose series, 48 h
SN12C renal = tested on: SN12C renal
SW-620 colon = tested on: SW-620 colon
SK-MEL-28 melanoma = tested on: SK-MEL-28 melanoma
HCC-2998 colon = tested on: HCC-2998 colon
TK-10 renal = tested on: TK-10 renal
HS 578T breast = tested on: HS 578T breast
HT29 colon = tested on: HT29 colon
SF-539 CNS = tested on: SF-539 CNS
K-562 leukemia = tested on: K-562 leukemia
MCF7 breast = tested on: MCF7 breast

| SMILES | GI50 (SN12C renal) [µM] | TGI (SN12C renal) [µM] | GI50 (SW-620 colon) [µM] | TGI (SW-620 colon) [µM] | GI50 (SK-MEL-28 melanoma) [µM] | TGI (SK-MEL-28 melanoma) [µM] | GI50 (HCC-2998 colon) [µM] | TGI (HCC-2998 colon) [µM] | GI50 (TK-10 renal) [µM] | TGI (TK-10 renal) [µM] | GI50 (HS 578T breast) [µM] | TGI (HS 578T breast) [µM] | GI50 (HT29 colon) [µM] | TGI (HT29 colon) [µM] | GI50 (SF-539 CNS) [µM] | TGI (SF-539 CNS) [µM] | GI50 (K-562 leukemia) [µM] | TGI (K-562 leukemia) [µM] | GI50 (MCF7 breast) [µM] | TGI (MCF7 breast) [µM] |
| --- | --- | --- | --- | --- | --- | --- | --- | --- | --- | --- | --- | --- | --- | --- | --- | --- | --- | --- | --- | --- |
| CCC[CH2][Sn]([CH2]CCC)([O]C(=O)c1ccc(OC)c(OC)c1OC)[O][Sn]([CH2]CCC)([CH2]CCC)[O]C(=O)c1ccc(OC)c(OC)c1OC | 0.443 | 1.58 | 0.0889 | 0.271 | 0.25 | 0.723 | 0.341 | 1.5 | 0.306 | 0.716 | 0.282 | 1.81 | 0.831 | 2.31 | 0.36 | 0.94 | 0.0416 | 1.86 | 0.133 | 1.28 |
| N=c1c2c(-c3ccccc3)c(-c3ccccc3)n(Cc3ccccc3)c2ncn1C1CCC(O)CC1 (centres undefined) | 0.389 | 16.4 | 0.0497 | 12.9 | 0.624 | 2.22 | 1.06 | 5.03 | 0.814 | 8.96 | 1.57 | 23.8 | 0.0772 | 2.49 | 0.639 | 2.24 | 0.0976 | 2.64 | 0.278 | 2.36 |
| COc1cc(N=Nc2ccc(O)c3ncccc23)c2ncccc2c1 | 4.45 | > 100 | 3.86 | > 100 | 4.06 | > 100 | 3.65 | > 100 | 9.81 | > 100 | 4.67 | > 100 | 6.65 | > 100 | 2.95 | 14 | 3.44 | > 100 | 2.18 | > 100 |
| COc1ccc(-c2ccc(=O)oc2C#Cc2cc(OC)c(OC)c(OC)c2)cc1O | 0.665 | > 100 | 0.15 | > 100 | 3.25 | > 100 | 0.265 | > 100 | 6.88 | > 100 | 0.696 | > 100 | 1.25 | 12.3 | 0.254 | 1.16 | 0.129 | > 100 | 0.12 | > 100 |
| S=c1[nH]c(=S)c2cc3ccccc3nc2[nH]1 | > 100 | > 100 | 26.8 | > 100 | > 100 | > 100 | 92.3 | > 100 | 94.2 | > 100 | 71.3 | > 100 | > 100 | > 100 | > 100 | > 100 | > 100 | > 100 | 5.33 | > 100 |
| CN(C)C1CCN(C(=O)c2ccc(NC(=O)Nc3ccc(-c4nc(N5CCOCC5)c5cccn5n4)cc3)cc2)CC1 | 0.0365 | 14.7 | 0.128 | 11.8 | 0.0724 | 0.849 | 0.043 | 5.86 | 0.393 | 3.84 | 0.0192 | 0.0926 | 0.0558 | 3.78 | 0.0453 | 0.406 | 0.224 | 9.66 |  | 1.51 |
| CC1CC2CCCC(O)=C2C(=O)O1 (centres undefined) |  | > 100 |  | > 100 |  | > 100 |  | > 100 |  | > 100 |  | > 100 |  | > 100 |  | > 100 |  | > 100 |  | > 100 |
| COc1ccc2nc3ccccc3c(NCc3ccc(F)cc3)c2c1 | 1.83 | 7.32 | 1.63 | 7.03 | 2.9 | 9.27 | 1 | 2.1 | 2.89 | 10.3 | 2.22 | 12.1 | 1.48 | 5.19 | 1.76 | 6.54 | 1.52 | 6.94 | 1.17 | 3.52 |
| NC(N)=N/N=C/c1c(Cl)cccc1Cl | 36.6 | > 100 | 15.8 | 30.6 | 17.6 | 34.6 | 14.8 | 28.6 | 21.9 | 66.3 | 18 | 78 | 17 | 43.4 | 23.7 | > 100 | 24.1 | 63.1 | 17.2 | 41.5 |
| CCn1c(O)c(/C=N/NC(=O)C(C)c2ccc(CC(C)C)cc2)sc1=S (centres undefined) | 0.619 | > 40.3 | 0.394 | > 40.9 | 1 | > 45.8 | 0.839 | 13.7 | 2.28 | > 50.7 | 0.294 | > 40.5 | 2.42 | > 37.8 | 0.214 | 0.609 | 0.282 | > 48.4 | 0.346 | > 35.1 |
| C=CCC1(c2ccc(OC)cc2)C=CC(=O)CC1 (centres undefined) |  | > 100 |  | > 100 |  | > 100 |  | > 100 |  | > 100 |  | > 100 |  | > 100 |  | > 100 |  | > 100 |  | > 100 |
| CCOc1ccc(/C=C2\N=C(c3ccc([N+](=O)[O-])cc3)OC2=O)cc1 |  | > 100 |  | > 100 |  | > 100 |  | > 100 |  | > 100 |  | > 100 |  | > 100 |  | > 100 |  | > 100 |  | > 100 |
| COc1cc(C(=O)N2CCN(C(=O)c3cc(OC)c(OC)c(OC)c3)C2=S)cc(OC)c1OC | 17.1 | 35.7 | 20.3 | 46.5 | 17.2 | 35.5 | 19 | 40 | 17 | 37.3 | 24.7 | > 100 | 22.7 | 53.2 | 14.5 | 30.2 | 24.9 | > 100 | 5.23 | 27.6 |
